From US10343985B2, “Cryopyrin inhibitors for preventing and treating inflammation” (VIRGINIA COMMONWEALTH UNIVERSITY, priority 2013, dated 2019)
Like-named read-outs stand apart in the source and are kept apart here.

How the values were obtained:
NLRP3 inflammasome [1] = molecular target: T1, NLRP3 inflammasome (Mus musculus, UniProt Q8R4B8); test: Cell death in HL-1 cardiomyocytes (trypan blue exclusion); type: cell-based, murine; design: immortalized adult murine cardiomyocytes (HL-1) cells were used; endogenous in cells; host or cells: HL-1 murine cardiomyocytes
NLRP3 inflammasome [2] = molecular target: T1, NLRP3 inflammasome; test: Caspase-1 enzymatic activity in HL-1 cardiomyocytes; type: cell-based, murine; design: immortalized adult murine cardiomyocytes (HL-1) cells were used; endogenous in cells; host or cells: HL-1 murine cardiomyocytes; conditions: LPS/ATP, compound 400 μM
Description: In separate experiments, immortalized adult murine cardiomyocytes (HL-1) cells were used. […] Formation of the NLRP3 inflammasome in HL-1 cells was determined and quantified by ASC aggregation (immunohistochemistry), caspase-1 activity (enzymatic activity) and cell death (trypan blue exclusion method), as previously described. […] As readout for the NLRP3 inflammasome activation, caspase-1 enzymatic activity and cell death were evaluated. Briefly, HL-1 cells (2×10^6 cells) were plated in 90-mm dishes and NLRP3 inflammasome formation was induced as described above. After treatments, to measure caspase-1 activity, the cells were washed, harvested, and frozen. The pellet was resuspended using RIPA buffer (Sigma-Aldrich) containing a mixture of protease inhibitors (Sigma-Aldrich) and centrifuged at 16,200×g for 20 min. The supernatants were collected and the protein contents were quantified using the Bradford assay. The caspase-1 activity was determined by measuring the fluorescence produced by the cleavage of a fluorogenic substrate. The fluorescence was reported as arbitrary fluorescence units produced by 1 μg of sample per min (fluorescence/μg/min).

NLRP3 inflammasome [3] = molecular target: T1, NLRP3 inflammasome; test: Acute myocardial infarction, single i.p. dose at reperfusion, infarct size (TTC); type: in vivo; design: from tissue; host or cells: live mice: heart (infarction and doxorubicin models) and peritoneal cavity (zymosan A); conditions: experiment with G1; 100 mg/kg i.p. at reperfusion; 24 hours; vs vehicle
Description: Experimental AMI was induced in mice by transient myocardial ischemia for 30 min followed by 24 hours of reperfusion. […] The heart were explanted at 24 hours and processed for the measurement of infarct size using triphenyl tetrazolium chloride (TTC staining). The areas of infarcted tissue, the risk zone, and the whole LV areas are determined by computer morphometry using Image Pro® Plus 6.0 software (Media Cybernetics, Silver Spring, Md.).
As described above, experimental AMI was induced by transient myocardial ischemia for 30 min followed by 24 hours of reperfusion.

insulin = conditions: Lamkanfi et al. 2009; cited from earlier work
NLRP3 inflammasome [4] = molecular target: NLRP3 inflammasome (Homo sapiens, UniProt Q96P20); conditions: literature reports, cited from earlier work
healthy mice = test: Toxic effects and glucose levels in healthy control mice

T1 sequence (Q8R4B8 whole entry): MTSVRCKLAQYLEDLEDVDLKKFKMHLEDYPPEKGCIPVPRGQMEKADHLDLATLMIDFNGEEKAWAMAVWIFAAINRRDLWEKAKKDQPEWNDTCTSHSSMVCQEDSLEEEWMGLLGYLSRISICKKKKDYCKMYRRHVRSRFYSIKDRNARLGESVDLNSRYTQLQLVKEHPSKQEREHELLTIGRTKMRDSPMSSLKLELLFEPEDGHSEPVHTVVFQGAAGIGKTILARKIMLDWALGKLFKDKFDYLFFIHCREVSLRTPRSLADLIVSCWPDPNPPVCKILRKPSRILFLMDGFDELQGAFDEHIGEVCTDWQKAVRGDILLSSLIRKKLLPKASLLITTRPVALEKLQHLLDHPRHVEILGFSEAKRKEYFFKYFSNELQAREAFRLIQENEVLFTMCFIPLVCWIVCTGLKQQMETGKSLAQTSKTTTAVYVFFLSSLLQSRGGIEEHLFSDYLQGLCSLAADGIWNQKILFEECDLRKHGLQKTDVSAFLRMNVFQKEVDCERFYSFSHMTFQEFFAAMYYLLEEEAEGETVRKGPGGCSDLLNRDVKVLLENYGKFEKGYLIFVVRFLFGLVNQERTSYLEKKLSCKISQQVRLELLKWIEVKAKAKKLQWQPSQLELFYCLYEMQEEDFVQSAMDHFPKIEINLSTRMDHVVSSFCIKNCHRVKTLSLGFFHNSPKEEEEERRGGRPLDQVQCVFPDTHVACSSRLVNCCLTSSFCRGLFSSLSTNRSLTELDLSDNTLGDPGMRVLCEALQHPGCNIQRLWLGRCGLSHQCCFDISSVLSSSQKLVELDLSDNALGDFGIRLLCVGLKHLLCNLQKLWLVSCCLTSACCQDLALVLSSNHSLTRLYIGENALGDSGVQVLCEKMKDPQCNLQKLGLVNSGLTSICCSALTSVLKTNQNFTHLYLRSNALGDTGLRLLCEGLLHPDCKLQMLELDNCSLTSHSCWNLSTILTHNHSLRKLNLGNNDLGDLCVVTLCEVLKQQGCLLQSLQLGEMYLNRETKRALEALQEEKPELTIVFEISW
NLRP3 inflammasome (Homo sapiens, UniProt Q96P20), sequence (Q96P20 whole entry): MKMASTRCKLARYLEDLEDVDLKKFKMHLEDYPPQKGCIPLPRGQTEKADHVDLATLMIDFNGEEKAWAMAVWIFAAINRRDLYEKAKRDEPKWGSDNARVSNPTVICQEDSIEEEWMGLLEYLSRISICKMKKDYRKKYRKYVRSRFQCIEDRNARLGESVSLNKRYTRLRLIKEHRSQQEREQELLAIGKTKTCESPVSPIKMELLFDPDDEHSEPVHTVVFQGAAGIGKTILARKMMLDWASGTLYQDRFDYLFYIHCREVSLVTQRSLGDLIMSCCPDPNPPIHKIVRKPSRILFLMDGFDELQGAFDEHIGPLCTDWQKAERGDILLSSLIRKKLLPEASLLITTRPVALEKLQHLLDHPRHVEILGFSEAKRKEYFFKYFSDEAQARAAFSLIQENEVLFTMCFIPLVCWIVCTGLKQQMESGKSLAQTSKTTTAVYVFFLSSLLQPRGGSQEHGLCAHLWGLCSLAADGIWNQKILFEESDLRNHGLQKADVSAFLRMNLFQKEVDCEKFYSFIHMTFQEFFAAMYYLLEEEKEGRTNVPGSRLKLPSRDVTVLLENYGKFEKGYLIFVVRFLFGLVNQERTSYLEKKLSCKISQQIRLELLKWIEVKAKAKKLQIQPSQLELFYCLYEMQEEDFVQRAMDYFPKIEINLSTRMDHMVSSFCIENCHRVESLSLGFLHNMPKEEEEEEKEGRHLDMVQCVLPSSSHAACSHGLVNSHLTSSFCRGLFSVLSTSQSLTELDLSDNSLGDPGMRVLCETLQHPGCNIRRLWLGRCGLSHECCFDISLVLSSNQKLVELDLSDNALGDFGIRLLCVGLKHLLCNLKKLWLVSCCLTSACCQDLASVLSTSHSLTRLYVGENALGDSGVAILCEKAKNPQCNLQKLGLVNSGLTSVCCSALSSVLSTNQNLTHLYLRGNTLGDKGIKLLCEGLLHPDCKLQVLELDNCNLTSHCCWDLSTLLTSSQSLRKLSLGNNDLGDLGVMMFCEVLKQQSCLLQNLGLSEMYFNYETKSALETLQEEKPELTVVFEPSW

COc1ccc(Cl)cc1C(=O)NCCc1ccccc1 [Compound 6 in FIG. 3, 5-chloro-2-methoxy-N-(2-phenylethyl)-benzamide]
cell death (NLRP3 inflammasome [1]): failed
cell death (NLRP3 inflammasome [1]; HL-1, LPS/ATP, compound 400 μM): no inhibitory effects
caspase-1 activity (NLRP3 inflammasome [2]): failed to inhibit
caspase-1 activity (NLRP3 inflammasome [2]; listed as intermediate compound): no inhibitory effects

COc1ccc(Cl)cc1C(=O)NCCc1ccc(S(=O)(=O)Cl)cc1 [Compound G1, 4-(2-[(5-chloro-2-methoxyphenyl)formamido]ethyl)benzene-1-sulfonyl chloride]
infarct size (% area at risk) (NLRP3 inflammasome [3]): no effect
effect on insulin (insulin): no effect
inhibition of cryopyrin / NLRP3 inflammasome in vitro (NLRP3 inflammasome [4]): inhibited
inhibition of cryopyrin / NLRP3 inflammasome in vitro (NLRP3 inflammasome [4]; listed as compound 1): retain some of the anti-inflammatory activity of glyburide

COc1ccc(Cl)cc1C(=O)NCCc1ccc(S(=O)(=O)NC(=O)NC2CCCCC2)cc1 [glyburide]
lethal within 3 days, share of mice (healthy mice; 100 mg/kg every 6 hours for 3 doses): 50%
glucose levels 2 hours after a single dose (healthy mice; 16673-34-0 100 mg/kg, (equimolar)): significant reduction
lethal in 3 days, share of mice (healthy mice; daily doses of 500 mg/kg): 100%
mortality in healthy mice (healthy mice; every 6 hours for 24 hours, 16673-34-0 100 mg/kg): 50%
plasma glucose levels (healthy mice; healthy mice, single and repeated injections, glyburide effect as early as 2 hours): significant reduction
